Assay results as given in ChEMBL document CHEMBL4651402, “Screening of ~5500 FDA-approved drugs and clinical candidates for anti-SARS-CoV-2 activity” (2021).

Tested on: SARS-CoV-2
Assay: microbe, parasite or virus in culture
Settings: Severe acute respiratory syndrome coronavirus 2, Vero C1008, 48 h

SMILES | IC50 [µM] | IC50 (read-out: pIC50 (converted)) [µM]
COc1ccc(O)cc1 [MEQUINOL] | > 20 | > 20
Cc1onc(-c2c(F)cccc2Cl)c1C(=O)N[C@@H]1C(=O)N2[C@@H]1SC(C)(C)[C@@H]2C(=O)O [FLOXACILLIN] | > 20 | > 20
CSc1ccc2ncn(/C=C/C(=O)O)c(=O)c2c1 | > 20 | > 20
Cc1c(C(=O)N2CCOc3ccc(-c4ccc(N)nc4)cc3C2)ccc(S(C)(=O)=O)c1F | > 20 | > 20
C/C(=C(\CCOP(=O)(O)O)SC(=O)c1ccccc1)N(C=O)Cc1cnc(C)nc1N [BENFOTIAMINE] | > 20 | > 20
CN1CCC[C@@H]1Cc1c[nH]c2ccc(CCS(=O)(=O)c3ccccc3)cc12 | > 20 | > 20
C[C@@H](CC(C(N)=O)(c1ccccc1)c1ccccc1)N(C)C | > 20 | > 20
COc1cc(CC(C)N)c(OC)cc1C (stereo not given) [DOM] | > 20 | > 20
CC[N+](C)(CC)CCOC(=O)C(O)(c1ccccc1)c1ccccc1 [METHYLBENACTYZIUM] | > 20 | > 20
CC(C)Oc1ccccc1N1CCN(Cc2cccc(C(=O)N3CCCCC3)c2)CC1 [MAZAPERTINE] | > 20 | > 20
Cc1cc(SCc2sc(-c3ccc(C(F)(F)F)cc3)nc2C)ccc1OCC(=O)O [GW501516] | > 20 | > 20
CCn1cc(C(=O)O)c(=O)c2cc3c(cc21)OCO3 [OXOLINIC ACID] | > 20 | > 20
CCOc1ccc2c3c1O[C@H]1[C@@H](O)C=C[C@H]4[C@@H](C2)N(C)CC[C@@]341 [ETHYLMORPHINE] | > 20 | > 20
CC(C)C1C(=O)N2CCCC2C2(O)OC(NC(=O)C3C=C4c5cccc6[nH]cc(c56)CC4N(C)C3)(C(C)C)C(=O)N12 (stereo not given) | > 20 | > 20
CC[N+](CC)(CC(=O)Nc1c(C)cccc1C)Cc1ccccc1 [DENATONIUM] | > 20 | > 20
Nc1cc(-c2ccncc2)c[nH]c1=O [INAMRINONE] | > 20 | > 20
C=C1C[C@]23C[C@@]1(O)CC[C@H]2[C@@]12C=C[C@H](O)[C@](C)(C(=O)O1)[C@H]2[C@@H]3C(=O)O [GIBBERELLIN GA3] | > 20 | > 20
O=C(O)C1=CC(=C(c2ccc(O)c(C(=O)O)c2)c2ccc(O)c(C(=O)O)c2)C=CC1=O [AURINTRICARBOXYLIC ACID] | > 20 | > 20
Cc1ccnc2c1NC(=O)c1cccnc1N2C1CC1 [NEVIRAPINE] | > 20 | > 20
N=C(N)NCCCOc1ccccc1 [GUANOXYFEN] | > 20 | > 20
CN(C)CCc1c[nH]c2ccc(Cn3cncn3)cc12 [RIZATRIPTAN] | > 20 | > 20
CCN(c1cc(-c2ccc(CN3CCOCC3)cc2)cc(C(=O)NCc2c(C)cc(C)[nH]c2=O)c1C)C1CCOCC1 [TAZEMETOSTAT] | > 20 | > 20
O=S1(=O)c2cccc3cccc(c23)N1CCCN1CCN(c2ccc(F)cc2)CC1 [FANANSERIN] | > 20 | > 20
O=C(O)CCCNC(=O)c1cccnc1 | > 20 | > 20

SMILES | IC50 [µM] | IC50 (read-out: pIC50 (converted)) [µM]
CCCCC/C=C\C/C=C\CCCCCCCC(=O)O [LINOLEIC ACID] | > 20 | > 20
O=C(c1ccc(Oc2ccc(F)cc2)nc1)N1CCCN(C2CCC2)CC1 [JNJ-39220675] | > 20 | > 20
CCNCC(O)c1cccc(O)c1 (stereo not given) [ETILEFRINE] | > 20 | > 20
CC(O)CO (stereo not given) [PROPYLENE GLYCOL] | > 20 | > 20
Fc1ccc(NC(=S)Nc2cc(Cl)cc(Cl)c2)cc1 [LOFLUCARBAN] | > 20 | > 20
O=C(O)CC[N+](=O)[O-] | > 20 | > 20
COc1cc(NS(=O)(=O)c2ccc(N)cc2)ncn1 [SULFAMONOMETHOXINE] | > 20 | > 20
CC(=O)OCC(=O)[C@@]1(O)CC[C@H]2[C@@H]3CCC4=CC(=O)CC[C@]4(C)C3(F)[C@@H](O)C[C@@]21C (stereo not given in full) | > 20 | > 20
CC(=O)N[C@H]1[C@H](O[C@@H]2c3ccc(c(Cl)c3)Oc3cc4cc(c3O[C@@H]3O[C@H](CO)[C@@H](O)[C@H](O)[C@H]3NC(=O)CCCCCCC(C)C)Oc3ccc(cc3Cl)C[C@H]3NC(=O)[C@@H](N)c5ccc(O)c(c5)Oc5cc(O)cc(c5)[C@H](NC3=O)C(=O)N[C@H]4C(=O)N[C@H]3C(=O)N[C@@H]2C(=O)N[C@@H](C(=O)O)c2cc(O)cc(O[C@H]4O[C@H](CO)[C@@H](O)[C@H](O)[C@@H]4O)c2-c2cc3ccc2O)O[C@H](CO)[C@@H](O)[C@@H]1O | > 20 | > 20
Cc1cccc(NC(=O)N[C@@H]2N=C(c3ccccc3)c3ccccc3N(C)C2=O)c1 [L-365260] | > 20 | > 20
CC(=O)OCC(=O)[C@H]1CC[C@H]2[C@@H]3CCC4=CC(=O)CC[C@]4(C)[C@H]3CC[C@]12C [DESOXYCORTICOSTERONE ACETATE] | > 20 | > 20
COc1ccc(-c2ccc3c(N4CCOC[C@@H]4C)nc(N4CCOC[C@@H]4C)nc3n2)cc1CO [AZD-8055] | > 20 | > 20
CO[C@H]1C[C@H](O[C@H]2[C@H](C)[C@@H](O[C@@H]3O[C@H](C)C[C@H](N(C)C)[C@H]3OC(C)=O)[C@@H](C)C[C@@]3(CO3)C(=O)[C@H](C)[C@H](OC(C)=O)[C@@H](C)[C@@H](C)OC(=O)[C@@H]2C)O[C@@H](C)[C@@H]1OC(C)=O | > 20 | > 20
CO/N=C/C1=CCCN(C)C1 [MILAMELINE] | > 20 | > 20
c1cnc2c(c1)CNC2 [6,7-DIHYDRO-5H-PYRROLO[3,4-B]PYRIDINE] | > 20 | > 20
O=C1CCC(c2ccccc2)(C2CCN(C/C=C/c3ccccc3)CC2)C(=O)N1 (stereo not given) | > 20 | > 20
COc1ccc2c3c1OC1C(O)C=CC4C(C2)[N+](C)(C)CCC341 (stereo not given) | > 20 | > 20
CCOc1ccc(/C=C2\NCCc3cc(OCC)c(OCC)cc32)cc1OCC [DROTAVERINE] | > 20 | > 20
CC(C)(O)c1ccn2c(-c3ccc(F)c(-c4ccc(F)cc4C#N)c3)cnc2c1F | > 20 | > 20
Cc1cc(/C=C/c2ccc3cc(N(C)C)ccc3[n+]2C)c(C)n1-c1ccccc1 | > 20 | > 20
Nc1nc(F)nc2c1ncn2[C@@H]1O[C@H](COP(=O)(O)O)[C@@H](O)[C@@H]1O [FLUDARABINE PHOSPHATE] | > 20 | > 20
CN1C(=O)C(O)N=C(c2ccccc2Cl)c2cc(Cl)ccc21 (stereo not given) [LORMETAZEPAM] | > 20 | > 20
CC(=O)OCC(=O)[C@@]1(O)CCC2C3CCC4=CC(=O)CCC4(C)C3C(O)CC21C (stereo not given in full) | > 20 | > 20
C[C@]12CC[C@@H]3c4ccc(O)cc4CC[C@H]3[C@@H]1CCC2=O [ESTRONE] | > 20 | > 20

SMILES | IC50 [µM] | IC50 (read-out: pIC50 (converted)) [µM]
C=CC(=O)Nc1cccc(Nc2nc(Nc3ccc(OCCOC)cc3)ncc2F)c1 [SPEBRUTINIB] | > 20 | > 20
CC1CC(OC(=O)C2CCC(=O)N2)CC(C)(C)C1 (stereo not given) | > 20 | > 20
C=CC[N@@+]12CC[C@]34c5ccccc5N5/C=C6\C7N(/C=C(/C53)[C@@H](C[C@@H]41)/C(=C/CO)C2)c1ccccc1[C@@]71CC[N@@+]2(CC=C)C/C(=C\CO)[C@@H]6C[C@@H]12 (stereo not given in full) | > 20 | > 20
Cc1cc(CCCCCOc2c(Cl)cc(C3=NCCO3)cc2Cl)on1 [WIN-54954] | > 20 | > 20
CCN(CC)CC(C)OC(=O)[C@H]1CCCC[C@]1(O)C1CCCCC1 (stereo not given in full) | > 20 | > 20
Nc1ncnc2c1ncn2[C@@H]1O[C@H](CO)[C@@H](O)[C@H]1O [ADENOSINE] | > 20 | > 20
CCCC(C)(COC(N)=O)COC(=O)NC(C)C (stereo not given) [CARISOPRODOL] | > 20 | > 20
CCCCN1CCC(CNC(=O)c2c3n(c4ccccc24)CCCO3)CC1 [PIBOSEROD] | > 20 | > 20
CCN1/C(=C/C=C/C=C/c2sc3ccccc3[n+]2CC)Sc2ccccc21 [DITHIAZANINE IODIDE] | > 20 | > 20
COc1cccc([C@H](O)C2CCN(CCc3ccc(F)cc3)CC2)c1OC [VOLINANSERIN] | > 20 | > 20
CCN(CC)CCOc1ccc2nc(N(C)C)sc2c1 [DIAMTHAZOLE] | > 20 | > 20
COC(=O)OC[C@H]1O[C@@H](Oc2cc(C)cc(O)c2C(=O)CCc2ccc3occc3c2)[C@H](O)[C@@H](O)[C@@H]1O | > 20 | > 20
CCCC1C(=O)N2C(N(C)C)=Nc3ccc(C)cc3N2C1=O (stereo not given) [APAZONE] | > 20 | > 20
COc1ccc2c3c1O[C@H]1C(=O)CC[C@H]4[C@@H](C2)N(C)CC[C@]314 [HYDROCODONE] | > 20 | > 20
Cc1ccc(=O)n(-c2ccccc2)c1 [PIRFENIDONE] | > 20 | > 20
Cn1ncnc1[C@H]1c2n[nH]c(=O)c3cc(F)cc(c23)N[C@@H]1c1ccc(F)cc1 [TALAZOPARIB] | > 20 | > 20
CCN(CC)CC/C(=N\OC(=O)Nc1ccc(OC)cc1)c1ccccc1 | > 20 | > 20
CN1CC(=O)NC1=N [CREATININE] | > 20 | > 20
Clc1ccc(CSC(Cn2ccnc2)c2ccc(Cl)cc2Cl)cc1 (stereo not given) [SULCONAZOLE] | > 20 | > 20
COc1ccc(/C=C2\CCCN=C2c2cccnc2)c(OC)c1 [GTS-21] | > 20 | > 20
CCOC(=O)c1ccc(C#Cc2ccc3c(c2)C(C)(C)CCS3)nc1 [TAZAROTENE] | > 20 | > 20
CN(C)CCC=C1c2ccccc2CCc2ccccc21 [AMITRIPTYLINE] | > 20 | > 20
